In general, IC50 refers to the concentration at which inhibition is half-maximal.

Molecules are shown by their SMILES.

The record followed here is US20240336611A1 (Insilico Medicine IP Limited, priority 2021, published 2024).

This assay deals with T1, TNIK kinase [amino acid sequence (1-367), Invitrogen] (Homo sapiens, UniProt Q9UKE5).
T1 construct: purchased Invitrogen
T1 sequence (Q9UKE5 1-367): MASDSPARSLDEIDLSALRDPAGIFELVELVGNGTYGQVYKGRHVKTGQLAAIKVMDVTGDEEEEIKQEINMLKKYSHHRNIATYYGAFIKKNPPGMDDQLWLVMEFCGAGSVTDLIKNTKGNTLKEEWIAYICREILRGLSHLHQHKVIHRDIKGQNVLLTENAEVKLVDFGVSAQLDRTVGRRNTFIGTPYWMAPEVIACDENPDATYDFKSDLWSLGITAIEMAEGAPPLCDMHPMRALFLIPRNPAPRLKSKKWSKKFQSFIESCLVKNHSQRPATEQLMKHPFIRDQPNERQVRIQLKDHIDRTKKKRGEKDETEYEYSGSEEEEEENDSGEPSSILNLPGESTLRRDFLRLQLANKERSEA
Nature of the assay: TNIK kinase inhibition assay (Z-lyte FRET-peptide). The assay is classed as biochemical. The following applies: 0.625 nM TNIK kinase, 2 μM Ser/Thr 7 peptide, 64 μM ATP, one hour at room temperature. How it is done: Z-lyte assay kit was purchased from Invitrogen. A site-specific protease recognizes and cleaves non-phosphorylated FRET-peptides. Phosphorylation of FRET-peptides suppresses cleavage by protease and will maintain FRET from donor to acceptor.
5 μl of Development Reagent A solution was then added to cleave non-phosphorylated peptide with a dilution 1:65000 in Development Buffer B. The assay plate was incubated at room temperature for another one hour and then read in the Envision plate reader (PerkinElmer).
As for `CC(C)c1onc(-c2ccc(F)cc2)c1-c1nc(C(=O)Nc2ccc(N3CC4CC(C3)N4C)cn2)co1` [Compound 104, 2-(3-(4-fluorophenyl)-5-isopropylisoxazol-4-yl)-N-(5-(6-methyl-3,6-diazabicyclo[3.1.1]heptan-3-yl)pyridin-2-yl)oxazole-4-carboxamide], the IC50 was in the range of 0.012 to 0.15 µM.

`CC(C)n1cnc(-c2ccc(F)cc2)c1-c1ncc(C(=O)Nc2ccc(N3CC4(CN(C)C4)C3)cc2)[nH]1` [Compound 20, 5′-(4-fluorophenyl)-3′-isopropyl-N-(4-(6-methyl-2,6-diazaspiro[3.3]heptan-2-yl)phenyl)-1H,3′H-[2,4′-biimidazole]-5-carboxamide] displayed an IC50 of 0.001 to 0.012 µM.

`[2H]C(C)(C)n1cnc(-c2ccc(F)cc2)c1-c1nc(C(=O)Nc2ccc(N3CCN(CC)CC3)cc2)c[nH]1` [Compound 135, 2-[3-(1-deuterio-1-methyl-ethyl)-5-(4-fluorophenyl)imidazol-4-yl]-N-[4-(4-ethylpiperazin-1-yl)phenyl]-1H-imidazole-4-carboxamide] returned an IC50 of 0.012 to 0.15 µM.

`[2H]C([2H])([2H])N1CC(c2ccc(NC(=O)c3coc(-c4c(-c5ccc(F)cc5)ncn4C(C)C)n3)nc2)C1` [Compound 112, 2-[5-(4-fluorophenyl)-3-isopropyl-imidazol-4-yl]-N-[5-[1 (trideuteriomethyl)azetidin-3-yl]-2-pyridyl]oxazole-4-carboxamide]: the IC50 is 0.012 to 0.15 µM.

`CC(C)n1cnc(-c2ccc(F)cc2)c1-c1coc(C(=O)Nc2ccc(N3CC4CCC(C3)N4C)cn2)n1` [Compound 39, 4-(4-(4-fluorophenyl)-1-isopropyl-1H-imidazol-5-yl)-N-(5-(8-methyl-3,8-diazabicyclo[3.2.1]octan-3-yl)pyridin-2-yl)oxazole-2-carboxamide]: the IC50 lay in the range of 0.012 to 0.15 µM.

In the case of `CN1CCN(c2ccc(NC(=O)c3c[nH]c(-c4c(-c5ccc(F)cc5)ncn4C4CC4)n3)cc2)CC1` [Compound 15, 3′-cyclopropyl-5′-(4-fluorophenyl)-N-(4-(4-methylpiperazin-1-yl)phenyl)-1H,3′H-[2,4′-biimidazole]-4-carboxamide], the IC50 fell in the range of 0.012 to 0.15 µM.

As to `[2H]C([2H])([2H])N1CC(c2ccc(NC(=O)c3c[nH]c(-c4c(-c5ccc(F)cc5)ncn4C([2H])(C)C)n3)nc2)C1` [Compound 118], the IC50 was in the range of 0.012 to 0.15 µM.

The molecule `CC(C)n1cnc(-c2ccc(F)cc2)c1-c1coc(C(=O)Nc2ccc(N3CCN(C)CC3)cc2F)n1` [Compound 27, N-(2-fluoro-4-(4-methylpiperazin-1-yl)phenyl)-4-(4-(4-fluorophenyl)-1-isopropyl-1H-imidazol-5-yl)oxazole-2-carboxamide] gave an IC50 of 0.012 to 0.15 µM.

For `CC(C)n1cnc(-c2ccc(F)cc2)c1-c1nc(C(=O)Nc2ncc(N3CCN(C)CC3)cn2)cs1` [Compound 46, 2-(4-(4-fluorophenyl)-1-isopropyl-1H-imidazol-5-yl)-N-(5-(4-methylpiperazin-1-yl)pyrimidin-2-yl)thiazole-4-carboxamide], the IC50 was more than 0.15 µM.

For `CC(C)n1cnc(-c2ccc(F)cc2)c1-c1cnc(C(=O)Nc2ccc(N3CCN(C)CC3)cc2)s1` [Compound 1, 5-(4-(4-fluorophenyl)-1-isopropyl-1H-imidazol-5-yl)-N-(4-(4-methylpiperazin-1-yl)phenyl)thiazole-2-carboxamide], the IC50 was more than 0.15 µM.

`O=C(Nc1ccc(N2CCC2)cn1)c1coc(-c2c(-c3ccc(F)cc3)ncn2C2COC2)n1` [Compound 79, N-(5-(azetidin-1-yl)pyridin-2-yl)-2-(4-(4-fluorophenyl)-1-(oxetan-3-yl)-1H-imidazol-5-yl)oxazole-4-carboxamide] had an IC50 of 0.012 to 0.15 µM.

With `Cc1cc(NC(=O)c2cnc(-c3c(-c4ccc(F)cc4)ncn3C(C)C)[nH]2)ccc1N1CCN(C)CC1` [Compound 18, 5′-(4-fluorophenyl)-3′-isopropyl-N-(3-methyl-4-(4-methylpiperazin-1-yl)phenyl)-1H,3′H-[2,4′-biimidazole]-5-carboxamide], the IC50 was in the range of 0.012 to 0.15 µM.

As to `CC(C)c1noc(-c2ccc(F)cc2)c1-c1nc(C(=O)Nc2ccc(C3CN(C)C3)cc2F)cs1` [Compound 87, N-(2-fluoro-4-(1-methylazetidin-3-yl)phenyl)-2-(5-(4-fluorophenyl)-3-isopropylisoxazol-4-yl)thiazole-4-carboxamide], the IC50 was 0.001 to 0.012 µM.

`CC(C)n1cnc(-c2ccc(F)cc2)c1-c1nc(C(=O)Nc2ccc(N3CCN(C)CC3)c(F)c2F)c[nH]1` [Compound 17, N-(2,3-difluoro-4-(4-methylpiperazin-1-yl)phenyl)-5′-(4-fluorophenyl)-3′-isopropyl-1H,3′H-[2,4′-biimidazole]-4-carboxamide] returned an IC50 of 0.001 to 0.012 µM.

`[2H]C([2H])([2H])N1CC(c2ccc(NC(=O)c3c[nH]c(-c4c(-c5ccc(F)cc5)ncn4C4CCC4)n3)nc2)C1` [Compound 119, 2-[3-cyclobutyl-5-(4-fluorophenyl)imidazol-4-yl]-N-[5-[1-(trideuteriomethyl)azetidin-3-yl]-2-pyridyl]-1H-imidazole-4-carboxamide] gave an IC50 of 0.012 to 0.15 µM.

Regarding `O=C(Nc1ccc(C2COC2)cn1)c1coc(-c2c(-c3ccc(F)cc3)ncn2C2COC2)n1` [Compound 82, 2-(4-(4-fluorophenyl)-1-(oxetan-3-yl)-1H-imidazol-5-yl)-N-(5-(oxetan-3-yl)pyridin-2-yl)oxazole-4-carboxamide], the IC50 is 0.012 to 0.15 µM.

Molecule `O=C(Nc1ccc(C2COC2)cn1)c1csc(-c2c(-c3ccc(F)cc3)ncn2C2COC2)n1` [Compound 78, 2-(4-(4-fluorophenyl)-1-(oxetan-3-yl)-1H-imidazol-5-yl)-N-(5-(oxetan-3-yl)pyridin-2-yl)thiazole-4-carboxamide] gave an IC50 of 0.001 to 0.012 µM.

The molecule `CN1[C@@H]2CC[C@H]1CN(c1ccc(NC(=O)c3c[nH]c(-c4c(-c5ccc(F)cc5)ncn4C4CCC4)n3)nc1)C2` [Compound 48, 3′-cyclobutyl-5′-(4-fluorophenyl)-N-(5-((1R,5S)-8-methyl-3,8-diazabicyclo[3.2.1]octan-3-yl)pyridin-2-yl)-1H,3′H-[2,4′-biimidazole]-4-carboxamide] had an IC50 of 0.001 to 0.012 µM.
